Test: Stability testing of macrocyclic copper chelates: DTPA challenge analysed by reversed phase HPLC
Format: physicochemical
Details: approximately 1 mM complex in 100 mM Tris-HCl buffer, pH 7.5, combined one to one with 55 mM DTPA, ambient temperature, 30 minutes
Protocol: Stability testing of macrocyclic copper chelates. (FIG. 1).
Example 13. Copper complexes 27, 39, and 44 were dissolved at approximately 1 mM concentration in 100 mM Tris-HCl buffer, pH 7.5. A solution of 55 mM diethylenetriaminepentaacetic acid (DTPA), pH 7.5 was prepared. Copper complexes were analyzed by reversed phase HPLC using an Agilent 1200 Series instrument equipped with a Zorbax Eclipse XDB-C18 4.6×150 mm 5 μm column. The method used an isocratic gradient of 0.1M triethylammonium bicarbonate, pH 7.5 (Solvent A) and 10-80% acetonitrile (Solvent B) as mobile phases. A solution of copper complex and DTPA solution combined in a ratio of one to one was prepared and mixed at ambient temperature for 30 minutes prior to analysis. Admixture of DTPA and copper complexes led to variable levels of dissociation of the copper complex, as quantified by the elution of the metal free ligand at shorter retention time.

Row | stability of the copper complex in the presence of DTPA competitor (dissociation quantified by elution of the metal free ligand) | Substance
1 | more stable than compound 27 | Copper(II) complex of 6-(2-aminoethyl)-1^6,11^6-dimercapto-2,10,12,25-tetraoxo-17,20-dioxa-3,6,9,13,24-pentaaza-1,11(2,5)-dipyridin-1-iumacyclopentacosaphane 1^1,11^1-dioxide [Compound 39]
2 | both are more stable than compound 27 | Copper complex of 16-(2-(4-(((S)-5-carboxy-5-(3-((S)-1,3-dicarboxypropyl)ureido)pentyl)carbamoyl)benzamido)ethyl)-1^6,11^6-dimercapto-2,10,12,20-tetraoxo-6- oxa-3,9,13,16,19-pentaaza-1,11(2,5)-dipyridin-1-iumacycloicosaphane 1^1,11^1-dioxide [Compound 27]

Row | Substance | stability of the copper complex in the presence of DTPA competitor (dissociation quantified by elution of the metal free ligand)
3 | Copper(II) complex of 4-((2-(2-aminoethoxy)ethyl)carbamoyl)-1^6,10^6-dimercapto-2,9,11,24-tetraoxo-16,19-dioxa-3,8,12,23-tetraaza-1,10(2,5)-dipyridin-1- iumacyclotetracosaphane 1^1,10^1-dioxide, trifluoroacetate salt [Compound 44] | more stable in the presence of DTPA competitor than complex 39

— US20240059668A1, “THIOHYDROXYPYRIDINE CHELATES” (LUMIPHORE, INC., priority 2020, published 2024)
